Experimental data taken from ChEMBL document CHEMBL4507268 (2021).

What was measured:
[1] = target: Serine/threonine-protein kinase Nek10 (Homo sapiens) (UniProt Q6ZWH5); conditions: Compound concentration 1000.0 nM
[2] = target: Microtubule-associated serine/threonine-protein kinase 1 (Homo sapiens) (UniProt Q9Y2H9); conditions: Compound concentration 1000.0 nM
[3] = target: Activin receptor type-2A (Homo sapiens) (UniProt P27037); conditions: Compound concentration 1000.0 nM
[4] = target: Tyrosine-protein kinase receptor Tie-1 (Homo sapiens) (UniProt P35590); conditions: Compound concentration 1000.0 nM
Sequence of Tyrosine-protein kinase receptor Tie-1 (Homo sapiens) (P35590 whole entry): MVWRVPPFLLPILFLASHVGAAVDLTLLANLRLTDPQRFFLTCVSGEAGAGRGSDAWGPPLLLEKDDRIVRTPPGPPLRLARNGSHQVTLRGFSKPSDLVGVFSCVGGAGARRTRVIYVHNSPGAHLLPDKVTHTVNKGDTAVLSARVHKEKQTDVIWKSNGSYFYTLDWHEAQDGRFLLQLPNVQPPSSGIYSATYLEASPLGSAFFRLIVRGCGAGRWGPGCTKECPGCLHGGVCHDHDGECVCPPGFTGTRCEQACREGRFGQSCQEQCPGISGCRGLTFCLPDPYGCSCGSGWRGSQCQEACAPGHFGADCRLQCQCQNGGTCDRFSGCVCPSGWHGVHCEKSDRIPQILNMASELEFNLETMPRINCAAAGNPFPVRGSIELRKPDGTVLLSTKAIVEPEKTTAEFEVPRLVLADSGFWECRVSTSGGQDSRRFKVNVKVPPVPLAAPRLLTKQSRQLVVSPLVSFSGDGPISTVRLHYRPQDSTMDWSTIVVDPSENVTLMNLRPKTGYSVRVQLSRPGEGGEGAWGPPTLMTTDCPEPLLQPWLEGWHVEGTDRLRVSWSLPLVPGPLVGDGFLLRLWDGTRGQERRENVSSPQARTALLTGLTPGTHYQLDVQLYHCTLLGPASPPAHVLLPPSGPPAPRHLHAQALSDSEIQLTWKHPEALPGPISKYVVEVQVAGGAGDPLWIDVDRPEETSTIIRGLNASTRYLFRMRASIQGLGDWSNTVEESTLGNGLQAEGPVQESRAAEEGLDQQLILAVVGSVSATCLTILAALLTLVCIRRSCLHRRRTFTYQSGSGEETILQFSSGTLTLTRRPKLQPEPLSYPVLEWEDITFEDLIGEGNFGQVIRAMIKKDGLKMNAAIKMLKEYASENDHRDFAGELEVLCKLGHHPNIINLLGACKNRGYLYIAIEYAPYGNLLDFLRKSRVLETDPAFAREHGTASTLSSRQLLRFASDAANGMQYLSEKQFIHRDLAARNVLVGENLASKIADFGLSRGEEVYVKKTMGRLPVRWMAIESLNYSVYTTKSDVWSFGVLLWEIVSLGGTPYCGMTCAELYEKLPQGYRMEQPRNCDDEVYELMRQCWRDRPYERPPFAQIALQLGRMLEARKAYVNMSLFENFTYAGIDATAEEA

[5] = target: Insulin-like growth factor 1 receptor (Homo sapiens) (UniProt P08069); conditions: Compound concentration 1000.0 nM
Sequence of Insulin-like growth factor 1 receptor (Homo sapiens) (P08069 31-736 limits assumed): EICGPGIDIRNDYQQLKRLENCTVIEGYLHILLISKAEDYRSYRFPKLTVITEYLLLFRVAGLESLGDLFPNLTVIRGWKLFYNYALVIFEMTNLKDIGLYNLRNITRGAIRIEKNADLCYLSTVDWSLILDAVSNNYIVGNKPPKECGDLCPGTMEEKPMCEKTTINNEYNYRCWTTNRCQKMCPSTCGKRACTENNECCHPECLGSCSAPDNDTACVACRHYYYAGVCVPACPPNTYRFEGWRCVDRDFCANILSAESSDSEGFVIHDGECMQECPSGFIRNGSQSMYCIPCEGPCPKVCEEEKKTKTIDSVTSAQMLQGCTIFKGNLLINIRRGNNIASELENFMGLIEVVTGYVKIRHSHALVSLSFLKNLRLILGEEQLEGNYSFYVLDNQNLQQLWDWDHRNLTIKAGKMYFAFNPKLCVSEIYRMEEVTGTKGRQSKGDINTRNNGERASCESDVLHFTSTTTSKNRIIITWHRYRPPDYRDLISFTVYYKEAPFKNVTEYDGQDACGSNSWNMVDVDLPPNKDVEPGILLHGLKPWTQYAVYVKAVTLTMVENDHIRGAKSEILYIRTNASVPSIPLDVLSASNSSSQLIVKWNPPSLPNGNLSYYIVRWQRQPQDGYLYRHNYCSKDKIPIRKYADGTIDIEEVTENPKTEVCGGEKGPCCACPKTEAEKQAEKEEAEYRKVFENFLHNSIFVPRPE
Sequence of Insulin-like growth factor 1 receptor (Homo sapiens) (P08069 741-1367 limits assumed): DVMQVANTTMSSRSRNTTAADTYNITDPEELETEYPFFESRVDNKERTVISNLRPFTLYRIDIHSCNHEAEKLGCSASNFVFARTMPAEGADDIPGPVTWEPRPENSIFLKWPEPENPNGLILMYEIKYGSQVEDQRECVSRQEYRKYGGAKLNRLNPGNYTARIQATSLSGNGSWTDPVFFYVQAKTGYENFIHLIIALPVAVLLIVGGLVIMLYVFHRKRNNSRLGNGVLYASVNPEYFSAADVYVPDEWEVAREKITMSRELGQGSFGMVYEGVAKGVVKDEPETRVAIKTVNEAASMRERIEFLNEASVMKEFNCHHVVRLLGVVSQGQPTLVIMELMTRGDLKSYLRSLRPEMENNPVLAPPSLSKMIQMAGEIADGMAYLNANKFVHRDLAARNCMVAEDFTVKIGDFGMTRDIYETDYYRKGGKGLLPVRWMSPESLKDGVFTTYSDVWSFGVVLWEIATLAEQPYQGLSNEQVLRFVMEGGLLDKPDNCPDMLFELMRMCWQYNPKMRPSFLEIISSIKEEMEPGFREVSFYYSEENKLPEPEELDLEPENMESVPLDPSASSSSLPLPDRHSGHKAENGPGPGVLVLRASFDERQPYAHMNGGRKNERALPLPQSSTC

[6] = target: T1, Receptor-interacting serine/threonine-protein kinase 1 (Homo sapiens) (UniProt Q13546); conditions: Compound concentration 1000.0 nM
T1 sequence (whole entry): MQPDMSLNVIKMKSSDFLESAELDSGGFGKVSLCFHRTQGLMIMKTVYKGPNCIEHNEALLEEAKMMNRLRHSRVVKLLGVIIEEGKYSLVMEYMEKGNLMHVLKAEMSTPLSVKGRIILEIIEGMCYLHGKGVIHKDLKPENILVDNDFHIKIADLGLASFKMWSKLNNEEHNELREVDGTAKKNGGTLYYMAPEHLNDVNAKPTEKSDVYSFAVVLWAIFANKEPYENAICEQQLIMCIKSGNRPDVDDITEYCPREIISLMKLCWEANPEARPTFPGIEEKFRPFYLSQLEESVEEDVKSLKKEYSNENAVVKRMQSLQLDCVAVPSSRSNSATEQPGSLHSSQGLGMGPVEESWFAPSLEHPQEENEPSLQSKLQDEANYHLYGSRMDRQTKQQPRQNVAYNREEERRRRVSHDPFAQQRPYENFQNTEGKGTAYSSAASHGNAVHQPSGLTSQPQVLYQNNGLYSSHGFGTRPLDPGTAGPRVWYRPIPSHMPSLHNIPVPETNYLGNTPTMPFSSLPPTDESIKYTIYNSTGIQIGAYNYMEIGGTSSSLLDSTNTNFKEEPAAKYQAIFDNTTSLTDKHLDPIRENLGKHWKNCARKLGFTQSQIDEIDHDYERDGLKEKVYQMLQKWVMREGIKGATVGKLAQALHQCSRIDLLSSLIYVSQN

[7] = system: Fibroblast growth factor receptor 3 (Homo sapiens), P22607 [G697C]; conditions: Compound concentration 1000.0 nM
Sequence of Fibroblast growth factor receptor 3 (Homo sapiens), P22607 [G697C] (P22607 whole entry G697C): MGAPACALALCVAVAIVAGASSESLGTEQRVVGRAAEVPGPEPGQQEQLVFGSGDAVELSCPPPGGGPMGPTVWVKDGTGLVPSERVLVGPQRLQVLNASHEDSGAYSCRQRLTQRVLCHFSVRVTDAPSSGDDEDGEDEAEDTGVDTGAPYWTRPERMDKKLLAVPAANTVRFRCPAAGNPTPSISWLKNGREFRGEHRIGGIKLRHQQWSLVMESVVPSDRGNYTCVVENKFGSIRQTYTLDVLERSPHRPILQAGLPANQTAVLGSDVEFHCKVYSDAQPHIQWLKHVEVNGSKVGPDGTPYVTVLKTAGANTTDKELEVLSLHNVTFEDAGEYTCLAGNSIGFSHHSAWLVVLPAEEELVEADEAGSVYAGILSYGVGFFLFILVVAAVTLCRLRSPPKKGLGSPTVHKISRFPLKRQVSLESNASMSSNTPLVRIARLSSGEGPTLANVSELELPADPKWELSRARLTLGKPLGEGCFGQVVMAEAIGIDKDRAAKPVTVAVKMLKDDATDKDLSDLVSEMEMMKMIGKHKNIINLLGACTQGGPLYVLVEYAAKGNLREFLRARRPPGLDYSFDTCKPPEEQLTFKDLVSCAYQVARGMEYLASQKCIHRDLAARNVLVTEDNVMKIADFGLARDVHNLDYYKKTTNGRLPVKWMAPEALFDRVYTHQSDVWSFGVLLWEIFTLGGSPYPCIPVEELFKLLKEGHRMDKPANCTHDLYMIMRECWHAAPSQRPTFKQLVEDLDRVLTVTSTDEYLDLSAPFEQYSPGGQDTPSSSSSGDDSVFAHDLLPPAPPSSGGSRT

[8] = target: Ribosomal protein S6 kinase alpha-4 (Homo sapiens) (UniProt O75676); conditions: Compound concentration 1000.0 nM
[9] = target: T2, Serine/threonine-protein kinase 4 (Homo sapiens) (UniProt Q13043); conditions: Compound concentration 1000.0 nM
T2 sequence (whole entry): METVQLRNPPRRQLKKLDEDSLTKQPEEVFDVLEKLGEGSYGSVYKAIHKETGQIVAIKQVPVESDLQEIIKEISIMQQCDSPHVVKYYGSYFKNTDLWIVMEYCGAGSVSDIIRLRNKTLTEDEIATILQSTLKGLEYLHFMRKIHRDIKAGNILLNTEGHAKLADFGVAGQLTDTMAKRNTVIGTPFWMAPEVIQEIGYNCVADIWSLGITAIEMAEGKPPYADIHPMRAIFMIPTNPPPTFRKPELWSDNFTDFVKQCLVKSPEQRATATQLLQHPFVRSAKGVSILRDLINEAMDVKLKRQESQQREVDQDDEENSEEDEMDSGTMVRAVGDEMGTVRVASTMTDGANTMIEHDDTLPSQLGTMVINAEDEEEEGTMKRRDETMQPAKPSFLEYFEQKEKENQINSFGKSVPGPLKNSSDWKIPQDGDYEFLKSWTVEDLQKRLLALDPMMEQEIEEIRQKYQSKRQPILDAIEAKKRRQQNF

[10] = system: BT-474; test: Proliferation assay: BT-474 (breast cancer); assay type: functional, cell-based; conditions: Homo sapiens
[11] = system: Tyrosine-protein kinase ABL1 (Homo sapiens), P00519 [Q252H]; conditions: Compound concentration 1000.0 nM
[12] = target: T3, Serine/threonine-protein kinase Nek9 (Homo sapiens) (UniProt Q8TD19); conditions: Compound concentration 1000.0 nM
T3 sequence (whole entry): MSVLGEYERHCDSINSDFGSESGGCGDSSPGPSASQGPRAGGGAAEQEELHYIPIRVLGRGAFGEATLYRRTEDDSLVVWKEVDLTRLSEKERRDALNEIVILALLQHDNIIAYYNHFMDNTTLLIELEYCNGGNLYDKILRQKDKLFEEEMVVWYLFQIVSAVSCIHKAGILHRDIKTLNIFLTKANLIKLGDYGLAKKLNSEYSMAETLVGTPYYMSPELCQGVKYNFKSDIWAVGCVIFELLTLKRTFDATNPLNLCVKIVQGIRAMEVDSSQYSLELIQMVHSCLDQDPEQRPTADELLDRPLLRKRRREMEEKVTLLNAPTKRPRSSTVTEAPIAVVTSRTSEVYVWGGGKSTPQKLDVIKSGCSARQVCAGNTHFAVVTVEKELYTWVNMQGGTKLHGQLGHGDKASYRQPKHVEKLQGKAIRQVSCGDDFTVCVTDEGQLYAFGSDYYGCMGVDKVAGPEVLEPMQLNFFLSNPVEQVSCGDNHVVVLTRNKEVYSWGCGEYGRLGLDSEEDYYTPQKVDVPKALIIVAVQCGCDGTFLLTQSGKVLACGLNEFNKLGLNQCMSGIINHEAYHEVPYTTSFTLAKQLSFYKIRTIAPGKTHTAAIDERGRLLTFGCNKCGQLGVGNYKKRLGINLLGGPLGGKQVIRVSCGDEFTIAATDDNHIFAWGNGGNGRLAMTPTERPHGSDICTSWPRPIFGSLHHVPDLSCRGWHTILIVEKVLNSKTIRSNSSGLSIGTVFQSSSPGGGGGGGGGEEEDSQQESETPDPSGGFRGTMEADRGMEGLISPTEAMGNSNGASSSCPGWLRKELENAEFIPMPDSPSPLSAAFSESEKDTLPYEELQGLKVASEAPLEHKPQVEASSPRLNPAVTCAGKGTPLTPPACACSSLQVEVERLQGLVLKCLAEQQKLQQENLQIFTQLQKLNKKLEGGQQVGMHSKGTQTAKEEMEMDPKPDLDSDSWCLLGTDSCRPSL

[13] = target: Mitogen-activated protein kinase 8 (Homo sapiens) (UniProt P45983); conditions: Compound concentration 1000.0 nM
Sequence of Mitogen-activated protein kinase 8 (Homo sapiens) (P45983 whole entry): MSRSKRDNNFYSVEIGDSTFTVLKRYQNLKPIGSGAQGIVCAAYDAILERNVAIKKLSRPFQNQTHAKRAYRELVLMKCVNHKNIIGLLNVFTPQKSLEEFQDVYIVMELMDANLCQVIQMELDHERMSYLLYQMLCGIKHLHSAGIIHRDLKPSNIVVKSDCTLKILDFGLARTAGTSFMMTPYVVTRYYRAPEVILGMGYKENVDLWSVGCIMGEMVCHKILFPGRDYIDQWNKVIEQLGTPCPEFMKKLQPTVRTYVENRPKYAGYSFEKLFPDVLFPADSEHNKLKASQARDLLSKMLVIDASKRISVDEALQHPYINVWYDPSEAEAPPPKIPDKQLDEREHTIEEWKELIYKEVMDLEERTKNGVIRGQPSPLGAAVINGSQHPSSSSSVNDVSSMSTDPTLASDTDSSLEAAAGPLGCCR

[14] = system: ALK tyrosine kinase receptor (Homo sapiens), Q9UM73 [L1196M]; conditions: Compound concentration 1000.0 nM
[15] = target: Interferon-induced, double-stranded RNA-activated protein kinase (Homo sapiens) (UniProt P19525); conditions: Compound concentration 1000.0 nM
[16] = target: 5-hydroxytryptamine receptor 7 (Homo sapiens) (UniProt P34969); conditions: Compound concentration 10.0 uM
Sequence of 5-hydroxytryptamine receptor 7 (Homo sapiens) (P34969 whole entry): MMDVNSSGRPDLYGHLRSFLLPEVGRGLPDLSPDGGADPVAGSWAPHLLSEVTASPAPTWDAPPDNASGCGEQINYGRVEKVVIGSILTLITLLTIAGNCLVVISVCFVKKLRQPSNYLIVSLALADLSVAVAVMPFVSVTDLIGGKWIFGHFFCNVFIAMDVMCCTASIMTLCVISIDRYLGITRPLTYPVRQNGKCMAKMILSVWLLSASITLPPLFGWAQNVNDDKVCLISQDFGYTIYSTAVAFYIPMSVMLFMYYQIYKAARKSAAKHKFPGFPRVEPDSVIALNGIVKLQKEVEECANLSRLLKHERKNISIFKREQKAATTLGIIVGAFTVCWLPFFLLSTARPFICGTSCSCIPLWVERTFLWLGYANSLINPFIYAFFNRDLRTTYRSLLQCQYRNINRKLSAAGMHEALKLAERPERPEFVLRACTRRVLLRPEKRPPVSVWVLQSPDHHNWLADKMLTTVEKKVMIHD

Sequence of Activin receptor type-2A (Homo sapiens) (P27037 whole entry): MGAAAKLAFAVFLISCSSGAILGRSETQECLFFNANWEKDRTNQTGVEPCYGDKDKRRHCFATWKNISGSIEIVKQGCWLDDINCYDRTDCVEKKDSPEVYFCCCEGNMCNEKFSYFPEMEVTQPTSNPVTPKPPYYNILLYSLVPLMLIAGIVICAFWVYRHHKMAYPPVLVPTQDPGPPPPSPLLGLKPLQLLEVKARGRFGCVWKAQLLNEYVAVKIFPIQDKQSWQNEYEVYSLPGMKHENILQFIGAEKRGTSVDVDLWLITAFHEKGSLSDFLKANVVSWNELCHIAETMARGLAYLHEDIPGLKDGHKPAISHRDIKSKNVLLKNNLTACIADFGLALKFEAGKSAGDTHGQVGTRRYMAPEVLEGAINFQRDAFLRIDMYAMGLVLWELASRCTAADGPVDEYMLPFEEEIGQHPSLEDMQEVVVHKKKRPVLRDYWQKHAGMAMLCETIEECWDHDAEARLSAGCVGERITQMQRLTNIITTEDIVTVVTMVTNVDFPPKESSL

| Structure (SMILES) | residual activity [1] [%] | residual activity [2] [%] | residual activity [3] [%] | residual activity [4] [%] | residual activity [5] [%] | residual activity [6] [%] | residual activity [7] [%] | residual activity [8] [%] | residual activity [9] [%] | IC50 [10] | residual activity [11] [%] | residual activity [12] [%] | residual activity [13] [%] | residual activity [14] [%] | residual activity [15] [%] | inhibition [16] [%] |
| --- | --- | --- | --- | --- | --- | --- | --- | --- | --- | --- | --- | --- | --- | --- | --- | --- |
| CN1CCN(c2cnc3c(C4CCN(C(=O)c5ccc(OC(F)(F)F)cc5N)CC4)ncnc3c2)CC1 [BAY-885] | 100 | 100 | 100 | 80 | 100 | 100 | 100 | 100 | 84 | > 30 µM (not active) | 100 | 100 | 97 | 100 | 85 | -9.57 |
| Cc1nc(C2CCN(C(=O)c3ccc(OC(F)(F)F)cc3N)CC2)c2ncc(N3CCN(C)CC3)cc2n1 [BAY-693] | 100 | 100 | 100 | 100 | 91 | 98 | 100 | 93 | 85 | 27.6 µM (not active) | 100 | 94 | 98 | 98 | 95 | -0.78 |
